From ChEMBL document CHEMBL1151468, “Selection of SHV extended-spectrum-beta-lactamase-dependent cefotaxime and ceftazidime resistance in Klebsiella pneumoniae requires a plasmid-borne blaSHV gene” (2008) come the findings set out here.

The test system of assay [1] is Klebsiella pneumoniae. The experiment in a line: Antibacterial activity against ESBL-negative Klebsiella pneumoniae isolate 114 at 1 ug/ml by Etest. The assay is classed as functional, organism-based.
In assay [2] the test system is Klebsiella pneumoniae. Briefly: Antibacterial activity against ESBL-negative Klebsiella pneumoniae isolate 102 at 1 ug/ml by Etest. The format is functional, organism-based.
Assay [3] relates to Klebsiella pneumoniae. The experiment in a line: Antibacterial activity against ESBL-negative Klebsiella pneumoniae isolate 106 at 1 ug/ml by Etest. The format is functional, organism-based.
For assay [4], the system named is Klebsiella pneumoniae. Briefly: Antibacterial activity against ESBL-negative Klebsiella pneumoniae isolate 113 at 1 ug/ml by Etest. The assay is classed as functional, organism-based.
Assay [5] concerns Klebsiella pneumoniae. The experiment in a line: Antibacterial activity against ESBL-negative Klebsiella pneumoniae isolate 104 by Etest. The assay is classed as functional.
Assay [6] has as its system Klebsiella pneumoniae. Briefly: Antibacterial activity against ESBL-negative Klebsiella pneumoniae isolate 85 by Etest. The format is functional.
The subject of assay [7] is Klebsiella pneumoniae. The experiment in a line: Antibacterial activity against ESBL-positive Klebsiella pneumoniae isolate 120 having upstream IS26 insertion by Etest. The format is functional.
The subject of assay [8] is Klebsiella pneumoniae. The experiment in a line: Antibacterial activity against ESBL-positive Klebsiella pneumoniae isolate J5 having blaSHV promoter sequence with IS26 insertion by Etest. The format is functional.
For assay [9], the system named is Klebsiella pneumoniae. Briefly: Antibacterial activity against ESBL-negative Klebsiella pneumoniae isolate 113 by Etest. The assay is classed as functional.
Assay [10] concerns Klebsiella pneumoniae. The experiment in a line: Antibacterial activity against ESBL-negative Klebsiella pneumoniae isolate 102 by Etest. The assay is classed as functional.
In assay [11] the test system is Klebsiella pneumoniae. Briefly: Antibacterial activity against ESBL-positive Klebsiella pneumoniae isolate 119 having blaSHV promoter sequence with IS26 insertion by Etest. The assay is classed as functional.
Assay [12] relates to Klebsiella pneumoniae. The experiment in a line: Antibacterial activity against ESBL-negative Klebsiella pneumoniae isolate 115 by Etest. The format is functional.
Assay [13] deals with Klebsiella pneumoniae. Briefly: Antibacterial activity against ESBL-positive Klebsiella pneumoniae isolate K2 having blaSHV promoter sequence with IS26 insertion by Etest. The format is functional.
The test system of assay [14] is Klebsiella pneumoniae. Briefly: Antibacterial activity against ESBL-positive Klebsiella pneumoniae isolate J4 having blaSHV promoter sequence with IS26 insertion by Etest. The format is functional.
For assay [15], the system named is Klebsiella pneumoniae. The experiment in a line: Antibacterial activity against ESBL-positive Klebsiella pneumoniae isolate 110 having upstream IS26 insertion by Etest. The assay is classed as functional.
Assay [16] relates to Klebsiella pneumoniae. The experiment in a line: Antibacterial activity against ESBL-negative Klebsiella pneumoniae isolate 105 by Etest. The assay is classed as functional.
The subject of assay [17] is Klebsiella pneumoniae. Briefly: Antibacterial activity against ESBL-positive Klebsiella pneumoniae isolate 121 having upstream IS26 insertion by Etest. The format is functional.
Assay [18] has as its system Klebsiella pneumoniae. Briefly: Antibacterial activity against ESBL-negative Klebsiella pneumoniae isolate 108 by Etest. The assay is classed as functional.
The subject of assay [19] is Klebsiella pneumoniae. The experiment in a line: Antibacterial activity against ESBL-negative Klebsiella pneumoniae isolate 107 by Etest. The format is functional.
The test system of assay [20] is Klebsiella pneumoniae. The experiment in a line: Antibacterial activity against ESBL-negative Klebsiella pneumoniae isolate 114 by Etest. The format is functional.
Assay [21] has as its system Klebsiella pneumoniae. The experiment in a line: Antibacterial activity against ESBL-negative Klebsiella pneumoniae isolate 30 by Etest. The format is functional.
Assay [22] deals with Klebsiella pneumoniae. The experiment in a line: Antibacterial activity against ESBL-negative Klebsiella pneumoniae isolate 109 by Etest. The assay is classed as functional.
Assay [23] concerns Klebsiella pneumoniae. Briefly: Antibacterial activity against ESBL-negative Klebsiella pneumoniae isolate 106 by Etest. The assay is classed as functional.
The test system of assay [24] is Klebsiella pneumoniae. The experiment in a line: Antibacterial activity against ESBL-negative Klebsiella pneumoniae isolate M1 by Etest. The assay is classed as functional.
Assay [25] has as its system Klebsiella pneumoniae. The experiment in a line: Antibacterial activity against ESBL-negative Klebsiella pneumoniae isolate 116 by Etest. The format is functional.

Values after ≈ are worked out from the molar mass of the structure shown. Active and inactive are the calls of the source. No cut-off for these calls is given here.

Regarding `CC(C)(O/N=C(\C(=O)N[C@@H]1C(=O)N2C(C(=O)[O-])=C(C[n+]3ccccc3)CS[C@H]12)c1csc(N)n1)C(=O)O`, the outcome in the assay with Klebsiella pneumoniae [1], in the assay with Klebsiella pneumoniae [2], with Klebsiella pneumoniae [3] and in the assay with Klebsiella pneumoniae [4] was Active.
On to `CO/N=C(\C(=O)N[C@@H]1C(=O)N2C(C(=O)O)=C(COC(C)=O)CS[C@H]12)c1csc(N)n1` [CEFOTAXIME], for which the MIC (usually the lowest concentration that inhibits growth of the organism) in the assay with Klebsiella pneumoniae [5] was 3 µg/mL (≈ 6.59 µM); against Klebsiella pneumoniae [6] it was over 16 µg/mL; with Klebsiella pneumoniae [7], over 16 µg/mL; in the assay with Klebsiella pneumoniae [8] it was over 16 µg/mL; with Klebsiella pneumoniae [9], over 16 µg/mL; against Klebsiella pneumoniae [10], 3 µg/mL (≈ 6.59 µM). For the same compound, the MIC was over 16 µg/mL in the assay on Klebsiella pneumoniae [11]; 8 µg/mL (≈ 17.6 µM) in the assay on Klebsiella pneumoniae [12]; over 16 µg/mL against Klebsiella pneumoniae [13]; over 16 µg/mL with Klebsiella pneumoniae [14]; over 16 µg/mL against Klebsiella pneumoniae [15]; over 16 µg/mL in the assay with Klebsiella pneumoniae [16]. The MIC is over 16 µg/mL against Klebsiella pneumoniae [17]; 6 µg/mL (≈ 13.2 µM) with Klebsiella pneumoniae [18]; 0.5 µg/mL (≈ 1.1 µM) in the assay with Klebsiella pneumoniae [19]; over 16 µg/mL against Klebsiella pneumoniae [20]; over 16 µg/mL with Klebsiella pneumoniae [21]; over 16 µg/mL in the assay on Klebsiella pneumoniae [22]. Also, the MIC with Klebsiella pneumoniae [23] was over 16 µg/mL; against Klebsiella pneumoniae [24], 4 µg/mL (≈ 8.78 µM); with Klebsiella pneumoniae [25], over 16 µg/mL.
